For one experiment, the target named is PI3Kα (Homo sapiens, UniProt P42336). As to the kind of experiment: ADP-Glo kinase assay, in vitro inhibition of PI3Kα kinase activity. The note with it: 25 μM ATP, PIP2 50 μg/mL, room temperature 1 h, read-out: Inhibitory activity against PI3K kinases, PI3Kα (IC50). The format is biochemical. As for the experimental part:
(§1) Biological Example 1. Assay for In Vitro Inhibition of PI3Kα, PI3Kβ, PI3Kγ, and PI3Kδ Kinase Activity by Compounds of the Present Disclosure
(§2) The experiment was performed using the ADP-Glo Kinase Assay kit according to the instructions. The following buffer solution was prepared: 50 mM HEPES, pH 7.5, 3 mM MgCl2, 1 mM EGTA, 100 mM NaCl, 0.03% CHAPS, 2 mM DTT. Test compound samples were dissolved in DMSO, diluted 3-fold at a starting concentration, e.g., 10 μM, and added to the screening system. A DMSO control and a kinase-free control were set simultaneously. The optimal concentrations of PI3Kα, PI3Kδ, PI3Kβ, and PI3Kγ enzymes, substrate (PIP2), and ATP were prepared with buffer. The enzyme reaction system contained: buffer, 25 μM ATP, kinase substrate (PIP2, 50 μg/mL), and kinases PI3Kα (0.15 μg/mL), PI3Kδ (1.2 μg/mL), PI3Kβ (0.3 μg/mL), PI3Kγ (2.5 μg/mL), and the like. The reaction system was reacted at room temperature for 1 h. The reaction was terminated by adding a termination reagent (ADP-Glo reagent, 5 μL), and the ADP content in the system was detected using a detection reagent (Kinase Detection Reagent, 10 μL). Signal data were collected using an Envision instrument. The inhibition rate was calculated according to the following equation: % inhibition=(DMSO control signal value−sample signal value)/(DMSO control signal value−kinase-free control signal value). The IC50 values were obtained by fitting a curve using the equation: Y=Bottom+(Top−Bottom)/(1+(IC50/X)^HillSlope).
For orientation: ADP-Glo first removes unused ATP, then detects ADP through luciferase.

The next experiment addresses PI3Kβ (Homo sapiens, UniProt P42338). As to the kind of experiment: ADP-Glo kinase assay, in vitro inhibition of PI3Kβ kinase activity. The conditions noted are these: 25 μM ATP, PIP2 50 μg/mL, room temperature 1 h, read-out: Inhibitory activity against PI3K kinases, PI3Kβ (IC50). Format: biochemical. As for the experimental part:
as §1, §2

The next experiment has as its target PI3Kδ (Homo sapiens, UniProt O00329). Kind of experiment: ADP-Glo kinase assay, in vitro inhibition of PI3Kδ kinase activity. The format is biochemical. The note with it: 25 μM ATP, PIP2 50 μg/mL, room temperature 1 h, read-out: Inhibitory activity against PI3K kinases, PI3Kδ (IC50). The method, then: as §1, §2
For another experiment, the target named is PI3Kγ (Homo sapiens, UniProt P48736). As to the kind of experiment: ADP-Glo kinase assay, in vitro inhibition of PI3Kγ kinase activity. Format: biochemical. The note with it: 25 μM ATP, PIP2 50 μg/mL, room temperature 1 h, read-out: Inhibitory activity against PI3K kinases, PI3Kγ (IC50). As for the experimental part: as §1, §2
Experiment [1] relates to MCF-7 cells (with PI3Kα E545K mutation). Kind of experiment: In vitro inhibition of MCF-7 cell proliferation (CellTiter-Lumi). Format: cell-based. The note with it: Homo sapiens, MCF7, 144 h. The gist of the method:
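Growth IC50 derived from ATP luminescence (CellTiter-Lumi) after 144 h exposure of MCF-7 cells carrying PI3Kα E545K, plated 2000 cells/well and dosed with serial dilutions one day after seeding.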

Experiment [2] relates to HCC1954 cells (with PI3Kα H1047R mutation). Kind of experiment: In vitro inhibition of HCC1954 cell proliferation (CellTiter-Lumi). Format: cell-based. The conditions noted are these: HCC1954 cells, 144 h, CellTiter-Lumi. As for the experimental part:
Assay for In Vitro Inhibition of HCC1954 Cell Proliferation by Compounds of the Present Disclosure
The growth of the cells was evaluated, and the IC50 for the inhibition of cell growth by the compounds was calculated.

[3] abbreviates: numeric values, read-out: Inhibitory activity against MCF-7 cells (IC50).
Setting [4] is: Homo sapiens, HCC1954, 144 h, numeric values, read-out: Inhibitory activity against HCC1954 cells (IC50).
The mark [5] stands for this setting: class symbols, read-out: Inhibitory activity against MCF-7 cells (IC50), class symbols.
Where [6] appears, read: Homo sapiens, HCC1954, 144 h, class symbols, read-out: Inhibitory activity against HCC1954 cells (IC50), class symbols.

Where two headings read alike, the source gives them in different places.

Drawing on patent US20260193268A1, “TRICYCLIC PI3Ka INHIBITOR, PREPARATION METHOD THEREFOR, AND PHARMACEUTICAL USE THEREOF” (WIGEN BIOMEDICINE TECHNOLOGY (SHANGHAI) CO., LTD., priority 2022, published 2026), this text covers IC50 for 15 molecules.

PI3Kγ, sequence (P48736 whole entry, species assumed): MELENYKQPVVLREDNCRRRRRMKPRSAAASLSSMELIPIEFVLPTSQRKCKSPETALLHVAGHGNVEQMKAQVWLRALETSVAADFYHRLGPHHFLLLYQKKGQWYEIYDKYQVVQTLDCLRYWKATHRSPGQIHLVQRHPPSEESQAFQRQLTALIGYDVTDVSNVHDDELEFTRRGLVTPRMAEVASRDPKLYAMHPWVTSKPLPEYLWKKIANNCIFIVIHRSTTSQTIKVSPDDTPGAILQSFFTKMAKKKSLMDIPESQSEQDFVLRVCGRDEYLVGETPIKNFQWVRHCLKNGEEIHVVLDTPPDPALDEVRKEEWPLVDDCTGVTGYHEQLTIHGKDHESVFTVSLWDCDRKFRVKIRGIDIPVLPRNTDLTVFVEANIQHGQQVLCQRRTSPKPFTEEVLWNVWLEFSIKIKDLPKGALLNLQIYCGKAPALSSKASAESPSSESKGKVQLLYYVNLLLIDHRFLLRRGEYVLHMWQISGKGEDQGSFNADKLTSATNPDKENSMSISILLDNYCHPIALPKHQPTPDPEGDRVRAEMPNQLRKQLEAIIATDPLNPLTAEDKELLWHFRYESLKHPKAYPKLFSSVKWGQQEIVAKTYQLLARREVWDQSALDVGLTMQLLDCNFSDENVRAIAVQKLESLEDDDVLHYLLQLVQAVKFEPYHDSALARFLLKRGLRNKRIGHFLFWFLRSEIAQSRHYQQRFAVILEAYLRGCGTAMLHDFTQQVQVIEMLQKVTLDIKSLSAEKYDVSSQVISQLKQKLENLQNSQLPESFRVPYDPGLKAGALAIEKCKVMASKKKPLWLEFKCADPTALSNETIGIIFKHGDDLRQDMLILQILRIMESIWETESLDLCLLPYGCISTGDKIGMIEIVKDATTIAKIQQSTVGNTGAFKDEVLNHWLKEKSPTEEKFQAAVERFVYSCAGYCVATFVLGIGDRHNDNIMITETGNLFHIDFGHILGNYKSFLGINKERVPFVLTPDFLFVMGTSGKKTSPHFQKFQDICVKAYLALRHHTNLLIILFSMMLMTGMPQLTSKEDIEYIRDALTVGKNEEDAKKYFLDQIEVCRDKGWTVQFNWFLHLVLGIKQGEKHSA
PI3Kα, sequence (P42336 whole entry): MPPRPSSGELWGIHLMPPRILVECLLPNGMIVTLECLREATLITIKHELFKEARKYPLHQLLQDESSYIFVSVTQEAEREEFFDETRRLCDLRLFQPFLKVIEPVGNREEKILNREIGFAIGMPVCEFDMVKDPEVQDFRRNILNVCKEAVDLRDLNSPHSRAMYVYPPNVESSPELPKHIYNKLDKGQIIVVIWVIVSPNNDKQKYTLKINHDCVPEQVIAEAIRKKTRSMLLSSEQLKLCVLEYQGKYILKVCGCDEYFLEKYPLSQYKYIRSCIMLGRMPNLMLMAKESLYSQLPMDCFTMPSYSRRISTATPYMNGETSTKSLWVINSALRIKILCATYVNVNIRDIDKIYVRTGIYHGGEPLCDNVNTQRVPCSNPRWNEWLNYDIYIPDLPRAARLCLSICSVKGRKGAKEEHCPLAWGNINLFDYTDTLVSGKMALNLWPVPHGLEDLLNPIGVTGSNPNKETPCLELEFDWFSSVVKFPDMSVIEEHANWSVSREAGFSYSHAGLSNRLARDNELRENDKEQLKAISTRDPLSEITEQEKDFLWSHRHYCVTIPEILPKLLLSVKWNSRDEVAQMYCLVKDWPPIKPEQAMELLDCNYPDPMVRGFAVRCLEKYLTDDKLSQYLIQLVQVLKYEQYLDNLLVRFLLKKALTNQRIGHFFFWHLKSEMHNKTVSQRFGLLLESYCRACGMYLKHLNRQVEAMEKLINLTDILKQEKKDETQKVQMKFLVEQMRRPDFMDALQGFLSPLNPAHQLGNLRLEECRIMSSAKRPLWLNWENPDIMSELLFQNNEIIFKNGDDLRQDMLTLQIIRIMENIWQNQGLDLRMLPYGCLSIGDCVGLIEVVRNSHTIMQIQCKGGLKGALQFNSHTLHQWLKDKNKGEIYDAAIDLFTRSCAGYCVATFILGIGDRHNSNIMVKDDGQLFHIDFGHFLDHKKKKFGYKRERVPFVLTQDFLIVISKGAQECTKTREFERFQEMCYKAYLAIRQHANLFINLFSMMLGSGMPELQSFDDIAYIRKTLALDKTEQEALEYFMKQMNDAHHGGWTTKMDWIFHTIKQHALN
PI3Kα, sequence (P27986 whole entry partner): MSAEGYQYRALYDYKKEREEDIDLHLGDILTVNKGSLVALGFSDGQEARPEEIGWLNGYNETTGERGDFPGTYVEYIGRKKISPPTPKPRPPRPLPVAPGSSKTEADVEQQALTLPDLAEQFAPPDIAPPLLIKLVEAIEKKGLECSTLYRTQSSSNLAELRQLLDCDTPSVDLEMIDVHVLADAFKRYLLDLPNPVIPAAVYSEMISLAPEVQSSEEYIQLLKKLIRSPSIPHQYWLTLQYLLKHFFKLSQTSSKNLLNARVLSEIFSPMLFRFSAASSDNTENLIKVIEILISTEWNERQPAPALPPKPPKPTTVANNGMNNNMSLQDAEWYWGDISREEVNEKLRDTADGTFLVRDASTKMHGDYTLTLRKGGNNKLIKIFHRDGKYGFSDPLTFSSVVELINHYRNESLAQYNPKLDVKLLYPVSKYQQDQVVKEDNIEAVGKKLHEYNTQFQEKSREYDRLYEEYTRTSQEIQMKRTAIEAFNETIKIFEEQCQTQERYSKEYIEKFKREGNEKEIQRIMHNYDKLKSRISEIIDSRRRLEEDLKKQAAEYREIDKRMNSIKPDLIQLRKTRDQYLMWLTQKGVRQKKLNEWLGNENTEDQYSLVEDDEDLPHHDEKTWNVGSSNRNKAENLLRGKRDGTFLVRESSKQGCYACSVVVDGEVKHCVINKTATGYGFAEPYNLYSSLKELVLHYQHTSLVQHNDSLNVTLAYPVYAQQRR
PI3Kβ, sequence (P42338 whole entry, species assumed): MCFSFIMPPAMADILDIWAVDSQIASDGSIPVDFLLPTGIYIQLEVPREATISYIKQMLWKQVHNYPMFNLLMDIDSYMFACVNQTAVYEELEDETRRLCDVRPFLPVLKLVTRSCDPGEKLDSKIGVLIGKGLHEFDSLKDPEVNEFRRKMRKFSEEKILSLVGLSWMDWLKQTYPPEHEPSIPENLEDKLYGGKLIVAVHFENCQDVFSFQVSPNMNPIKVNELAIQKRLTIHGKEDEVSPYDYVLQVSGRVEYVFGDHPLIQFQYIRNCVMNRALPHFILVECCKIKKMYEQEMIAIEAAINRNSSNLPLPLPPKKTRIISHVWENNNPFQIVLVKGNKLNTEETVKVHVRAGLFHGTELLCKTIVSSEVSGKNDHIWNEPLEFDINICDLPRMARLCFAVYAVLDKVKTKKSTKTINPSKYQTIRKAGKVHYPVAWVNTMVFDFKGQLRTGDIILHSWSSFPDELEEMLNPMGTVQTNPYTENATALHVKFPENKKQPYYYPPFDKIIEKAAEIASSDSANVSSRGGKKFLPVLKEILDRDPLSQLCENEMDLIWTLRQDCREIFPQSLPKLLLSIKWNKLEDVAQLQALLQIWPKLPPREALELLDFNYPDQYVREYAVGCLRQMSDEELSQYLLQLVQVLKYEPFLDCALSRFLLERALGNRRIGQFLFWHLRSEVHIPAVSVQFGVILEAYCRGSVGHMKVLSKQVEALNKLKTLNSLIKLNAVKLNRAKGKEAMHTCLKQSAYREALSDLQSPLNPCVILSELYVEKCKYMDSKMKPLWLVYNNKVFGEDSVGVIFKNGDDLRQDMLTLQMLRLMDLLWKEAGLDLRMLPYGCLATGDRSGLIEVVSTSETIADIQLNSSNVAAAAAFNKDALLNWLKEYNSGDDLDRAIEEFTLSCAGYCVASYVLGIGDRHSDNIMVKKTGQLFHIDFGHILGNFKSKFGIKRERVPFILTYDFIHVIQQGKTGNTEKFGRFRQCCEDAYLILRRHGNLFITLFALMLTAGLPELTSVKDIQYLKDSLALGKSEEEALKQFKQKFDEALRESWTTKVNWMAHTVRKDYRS
PI3Kβ, sequence (P27986 whole entry partner, species assumed): as the sequence (P27986 whole entry partner) above
PI3Kδ, sequence (O00329 whole entry, species assumed): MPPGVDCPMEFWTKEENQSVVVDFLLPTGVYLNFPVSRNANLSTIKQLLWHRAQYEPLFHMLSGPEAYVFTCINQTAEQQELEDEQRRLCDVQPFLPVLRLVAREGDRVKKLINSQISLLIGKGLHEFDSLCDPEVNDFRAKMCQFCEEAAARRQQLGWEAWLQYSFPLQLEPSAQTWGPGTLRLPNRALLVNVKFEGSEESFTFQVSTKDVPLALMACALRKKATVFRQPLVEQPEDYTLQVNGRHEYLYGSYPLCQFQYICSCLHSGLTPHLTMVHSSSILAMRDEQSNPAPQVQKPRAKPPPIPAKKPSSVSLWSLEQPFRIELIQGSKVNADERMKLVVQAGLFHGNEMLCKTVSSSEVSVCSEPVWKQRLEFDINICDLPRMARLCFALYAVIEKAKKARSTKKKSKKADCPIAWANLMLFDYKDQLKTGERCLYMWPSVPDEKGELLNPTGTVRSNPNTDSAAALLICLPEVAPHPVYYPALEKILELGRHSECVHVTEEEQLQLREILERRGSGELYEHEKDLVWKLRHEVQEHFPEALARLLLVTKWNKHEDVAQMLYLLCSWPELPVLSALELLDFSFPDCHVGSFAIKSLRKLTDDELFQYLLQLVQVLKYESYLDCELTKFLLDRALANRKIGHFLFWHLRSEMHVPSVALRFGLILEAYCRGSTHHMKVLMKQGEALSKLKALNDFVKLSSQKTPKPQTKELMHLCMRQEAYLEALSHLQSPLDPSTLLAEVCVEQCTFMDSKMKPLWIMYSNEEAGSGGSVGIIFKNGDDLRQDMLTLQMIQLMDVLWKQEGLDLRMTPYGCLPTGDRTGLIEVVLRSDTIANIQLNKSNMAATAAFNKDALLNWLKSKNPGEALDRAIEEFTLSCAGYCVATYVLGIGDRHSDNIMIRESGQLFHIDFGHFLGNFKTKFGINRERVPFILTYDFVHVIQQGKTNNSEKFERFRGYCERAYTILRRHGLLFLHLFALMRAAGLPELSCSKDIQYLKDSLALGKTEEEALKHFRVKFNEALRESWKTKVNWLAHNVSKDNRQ
PI3Kδ, sequence (P27986 whole entry partner, species assumed): as the sequence (P27986 whole entry partner) above

The IC50 is the concentration that inhibits the measured activity by half. For `C=CC(=O)Nc1ccc(N2CC[C@H](N3CCN(c4ccc5c(c4)-c4nc(N6C(=O)OC[C@H]6C(F)F)cn4CCO5)CC3)C2)cc1` (single isomer, unassigned) [Compound 29], the IC50 came to 1.18 nM on PI3Kα, 1260 nM on PI3Kβ, 49 nM on PI3Kδ and 38 nM at PI3Kγ.

Consider `C=CC(=O)Nc1ccc(CC(=O)N2CCN(c3ccc4c(c3)-c3nc(N5C(=O)OC[C@H]5C(F)F)cn3CCO4)CC2)cc1` [Compound 1], for which the IC50 in experiment [1] (setting [3]) was 18 nM; on PI3Kα it was 5.4 nM; on PI3Kβ, 317 nM; at PI3Kδ, < 8 nM; in experiment [2] (setting [4]) it was 103 nM; on PI3Kγ, 21 nM.

Consider `C=CC(=O)N1CC[C@@H](C(=O)NCC(=O)N2CCN(c3ccc4c(c3)-c3nc(N5C(=O)OC[C@H]5C(F)F)cn3CCO4)CC2)C1` [Compound 2], for which the IC50 in experiment [1] (setting [3]) is 28 nM; on PI3Kα, 7.3 nM; at PI3Kβ it was 513 nM; on PI3Kδ, 20 nM; in experiment [2] (setting [4]), 97 nM; at PI3Kγ, 44 nM.

For the molecule `C=CC(=O)Nc1ccc(N2CC(CN3CCN(c4ccc5c(c4)-c4nc(N6C(=O)OC[C@H]6C(F)F)cn4CCO5)CC3)C2)cc1` [Compound 4], the IC50 in experiment [1] (setting [3]) stood at 26 nM; on PI3Kα, 7.4 nM; on PI3Kβ, 315 nM; at PI3Kδ, 43 nM; in experiment [2] (setting [4]), 65 nM; on PI3Kγ, 98 nM.

For `C=CC(=O)N1CCC(N2CC(CN3CCN(c4ccc5c(c4)-c4nc(N6C(=O)OC[C@H]6C(F)F)cn4CCO5)CC3)C2)CC1` [Compound 5], the IC50 in experiment [1] (setting [3]) came out at 35 nM; on PI3Kα it was 50 nM; on PI3Kβ, 314 nM; at PI3Kδ it was 117 nM; in experiment [2] (setting [4]) it was 670 nM; on PI3Kγ, 1200 nM.

Turning to `C=CC(=O)N1CC(N2CCC(CN3CCN(c4ccc5c(c4)-c4nc(N6C(=O)OC[C@H]6C(F)F)cn4CCO5)CC3)CC2)C1` [Compound 17], the IC50 in experiment [1] (setting [3]) worked out at 16 nM; at PI3Kα, 11 nM; on PI3Kβ it was 314 nM; on PI3Kδ, 92 nM; in experiment [2] (setting [4]), 81 nM; at PI3Kγ it was 317 nM.

In the case of `C=CC(=O)Nc1ccc(N2CC(N3CCN(c4ccc5c(c4)-c4nc(N6C(=O)OC[C@H]6C(F)F)cn4CCO5)CC3)C2)cc1` [Compound 27], the IC50 in experiment [1] (setting [3]) amounted to 0.36 nM; at PI3Kα it was 0.21 nM; on PI3Kβ it was 2920 nM; at PI3Kδ, 76 nM; in experiment [2] (setting [4]), 9 nM; on PI3Kγ it was 26 nM.

Regarding `CN(C1COC1)C(C)(C)/C=C(\C#N)C(=O)Nc1ccc(N2CC(N3CCN(c4ccc5c(c4)-c4nc(N6C(=O)OC[C@H]6C(F)F)cn4CCO5)CC3)C2)cc1` [Compound 95], the half-maximal inhibitory concentration (IC50) amounted to 38 nM in experiment [1] (setting [3]); 0.16 nM on PI3Kα; 1090 nM on PI3Kβ; 103 nM at PI3Kδ; 68 nM in experiment [2] (setting [4]); 42 nM on PI3Kγ.

On to `CN(C)C/C=C/C(=O)Nc1ccc(N2CC(N3CCN(c4ccc5c(c4)-c4nc(N6C(=O)OC[C@H]6C(F)F)cn4CCO5)CC3)C2)cc1` [Compound 96], for which the IC50 was 2.5 nM in experiment [1] (setting [3]); 1.33 nM on PI3Kα; 3160 nM on PI3Kβ; 475 nM at PI3Kδ; 26 nM in experiment [2] (setting [4]); 223 nM on PI3Kγ.

With `N#CC(=CC1(N)CCC1)C(=O)Nc1ccc(N2CC(N3CCN(c4ccc5c(c4)-c4nc(N6C(=O)OC[C@H]6C(F)F)cn4CCO5)CC3)C2)cc1` [Compound 391], the IC50 in experiment [1] (setting [5]) and in experiment [2] (setting [6]) was < 50 nM each time.

For the molecule `CNC1(C=C(C#N)C(=O)Nc2ccc(N3CC(N4CCN(c5ccc6c(c5)-c5nc(N7C(=O)OC[C@H]7C(F)F)cn5CCO6)CC4)C3)cc2)CCC1` [Compound 392], the IC50 in experiment [1] (setting [5]) and in experiment [2] (setting [6]) was < 50 nM throughout.

As to `N#CC(=CC1CCCC1)C(=O)Nc1ccc(N2CC(N3CCN(c4ccc5c(c4)-c4nc(N6C(=O)OC[C@H]6C(F)F)cn4CCO5)CC3)C2)cc1` [Compound 393], the IC50 in experiment [1] (setting [5]) and in experiment [2] (setting [6]) was < 50 nM each time.

On to `N#CC(=Cc1ccccc1)C(=O)Nc1ccc(N2CC(N3CCN(c4ccc5c(c4)-c4nc(N6C(=O)OC[C@H]6C(F)F)cn4CCO5)CC3)C2)cc1` [Compound 394], for which the IC50 in experiment [1] (setting [5]) and in experiment [2] (setting [6]) was < 50 nM throughout.

With `CCC(N)(C=C(C#N)C(=O)Nc1ccc(N2CC(N3CCN(c4ccc5c(c4)-c4nc(N6C(=O)OC[C@H]6C(F)F)cn4CCO5)CC3)C2)cc1)CC` [Compound 395], the IC50 in experiment [1] (setting [5]) and in experiment [2] (setting [6]) was < 50 nM each time.

For `C[C@H](Nc1ccc2c(c1)OCCn1cc(N3C(=O)OC[C@H]3C(F)F)nc1-2)C(N)=O` [GDC0077, GDC-0077, reference compound], the IC50 amounted to 55 nM in experiment [1] (setting [3]) and 82 nM in experiment [2] (numeric values, read-out: Inhibitory activity against HCC1954 cells (IC50)).
